pIC50: −log10 of the molar value. Several values for one entry are separate records, joined by “and”; a condition that tells them apart may be missing. Identical values can stand only once.
These molecules were tested against SARS-CoV-2 3CL protease (Severe acute respiratory syndrome coronavirus 2, UniProt P0DTD1) (assay: biochemical). Conditions: IC50.
Cn1cnc(Cn2c(=O)nc(Nc3cc4cn(CC(=O)NC5CC5)nc4cc3Cl)n(Cc3cc(F)c(F)c(Cl)c3)c2=O)n1 [II-0152] was tested, and the pIC50 was > 7.00.
Cc1cnc(NC23CC(Nc4nc(=O)n(Cc5ccc[nH]c5=O)c(=O)n4Cc4cc(F)c(F)c(F)c4)(C2)C3)nc1 [II-0444] was tested, and the pIC50 was > 7.00.
With Cc1cncc(-n2c(=O)nc(Nc3ccc(N=S4(=O)CCCC4)c(Cl)c3)n(Cc3cc(Cl)ccc3C)c2=O)c1 [II-0615] the pIC50 was > 7.00.
In the case of COc1ccc(Nc2cc(=O)n(Cc3ccc[nH]c3=O)c(=O)n2Cc2cc(F)c(F)c(F)c2)cc1 [Compound I-0326], the pIC50 was 7.19.
In the case of CN(C)CCn1cc2cc(Nc3nc(=O)n(Cc4ccc[nH]c4=O)c(=O)n3Cc3cc(F)c(F)c(F)c3)c(Cl)cc2n1 [Compound I-0427], the pIC50 was > 7.00.
For CC(=O)N1CC(n2cc3cc(Nc4nc(=O)n(-c5cncc6ccccc56)c(=O)n4Cc4cc(F)c(F)c(F)c4)c(Cl)cc3n2)C1 [Compound I-0289], the pIC50 was > 7.00.
With C[C@H](Nc1nc(=O)n(Cc2ccc[nH]c2=O)c(=O)n1Cc1cc(F)c(F)c(F)c1)c1ccccc1 [II-0230] the pIC50 was 6.26.
With Cc1cncc(-n2c(=O)nc(Nc3cc4c(=O)n(C)cnc4cc3F)n(Cc3ccc(F)c(C#N)c3)c2=O)c1 [II-0480] the pIC50 was > 7.00.
In the case of CC(=O)NCCn1cc2cc(Nc3nc(=O)n(Cc4ccc[nH]c4=O)c(=O)n3Cc3cc(F)c(F)c(F)c3)c(Cl)cc2n1 [Compound I-0449], the pIC50 was > 7.00.
With CCn1cc2cc(Nc3nc(=O)n(Cc4ncn(C)n4)c(=O)n3Cc3cc(Cl)c(F)cn3)c(Cl)cc2n1 [II-0268] the pIC50 was > 7.00.
With COCCN(C)C(=O)Cn1cc2cc(Nc3nc(=O)n(Cc4ncn(C)n4)c(=O)n3Cc3cc(Cl)c(F)cc3F)c(Cl)cc2n1 [II-0135] the pIC50 was > 7.00.
Cn1cnc(Cn2c(=O)nc(Nc3cc4cn(CC(=O)N5CCCCC5)nc4cc3Cl)n(Cc3cc(Cl)c(F)cc3F)c2=O)n1 [II-0134] was tested, and the pIC50 was > 7.00.
In the case of Cc1cncc(-n2c(=O)nc(Nc3cc4sc(NCC5CC5)nc4cc3Cl)n(Cc3ccc(F)c(C#N)c3)c2=O)c1 [II-0081], the pIC50 was > 7.00.
In the case of Cc1cncc(-n2c(=O)nc(Nc3cc4c(=O)n(C)cnc4cc3Cl)n(Cc3ccc(F)c(C#N)c3)c2=O)c1 [II-0467], the pIC50 was > 7.00.
Cn1cnc(Cn2c(=O)nc(Nc3cc4cn(CC(=O)N5CCC5)nc4cc3Cl)n(Cc3cc(F)c(F)c(Cl)c3)c2=O)n1 [II-0153] was tested, and the pIC50 was > 7.00.
In the case of Cn1cnc(Cn2c(=O)nc(Nc3cc4oc(N)nc4cc3Cl)n(Cc3cc(F)c(F)c(F)c3)c2=O)n1 [II-0511], the pIC50 was > 7.00.
In the case of Cn1cc2cc(Nc3nc(=O)n(Cc4cc(F)c[nH]c4=O)c(=O)n3Cc3ccc(F)c(C#N)c3)c(Cl)cc2n1 [Compound I-0270], the pIC50 was > 7.00.
In the case of CNC(=O)c1ccc(Nc2nc(=O)n(Cc3ccc[nH]c3=O)c(=O)n2Cc2cc(F)c(F)c(F)c2)cc1 [Compound I-0149], the pIC50 was 5.46 and 5.00 to 6.00.
With CNC(=O)Cn1cc2cc(Nc3nc(=O)n(Cc4ncn(C)n4)c(=O)n3Cc3cc(Cl)c(F)cc3F)c(Cl)cc2n1 [II-0137] the pIC50 was > 7.00.
For CN1CC[C@H](n2cc3cc(Nc4nc(=O)n(Cc5ncn(C)n5)c(=O)n4Cc4cc(F)c(F)cc4F)c(Cl)cc3n2)C1=O [II-0465], the pIC50 was > 7.00.
For Cc1cncc(-n2c(=O)nc(Nc3ccc(N=S4(=O)CCCC4)cc3)n(Cc3cc(Cl)ccc3C)c2=O)c1 [II-0618], the pIC50 was > 7.00.
With COc1ccc(Nc2nc(=O)n(Cc3c[nH]c(=O)[nH]c3=O)c(=O)n2Cc2cc(F)c(F)c(F)c2)cc1 [Compound I-0099] the pIC50 was > 7.00.
With CNc1cncc(-n2c(=O)nc(Nc3ccc4c(c3)CCO4)n(Cc3cc(F)c(F)cc3F)c2=O)c1 [II-0612] the pIC50 was > 7.00.
Cn1cnc(Cn2c(=O)nc(Nc3cc4cn(C)nc4cc3Cl)n(Cc3cc(Cl)cc(F)c3F)c2=O)n1 [II-0641] was tested, and the pIC50 was > 7.00.
For CN(C(=O)Cn1cc2cc(Nc3nc(=O)n(Cc4ncn(C)n4)c(=O)n3Cc3cc(F)c(F)c(Cl)c3)c(Cl)cc2n1)C1CC1 [II-0155], the pIC50 was > 7.00.
CNC(=O)CCn1c(=O)nc(Nc2cc3cn(C)nc3cc2Cl)n(Cc2cc(F)c(F)cc2F)c1=O [II-0643] was tested, and the pIC50 was 6.00.
In the case of Cn1cnc(Cn2c(=O)nc(Nc3cc4sc(NCC(F)F)nc4cc3Cl)n(Cc3ccc(F)c(C#N)c3)c2=O)n1 [II-0502], the pIC50 was > 7.00.
Cn1cnc(Cn2c(=O)nc(Nc3cc4cn(CC(F)F)nc4cc3Cl)n(Cc3cc(Cl)c(F)cn3)c2=O)n1 [II-0540] was tested, and the pIC50 was > 7.00.
For O=c1[nH]cccc1Cn1c(=O)nc(Nc2ccc(-c3cocn3)cc2Cl)n(Cc2cc(F)c(F)c(F)c2)c1=O [Compound I-0396], the pIC50 was 5.51 and 5.00 to 6.00.
For CC(=O)Nc1nc2cc(Cl)c(Nc3nc(=O)n(Cc4ncn(C)n4)c(=O)n3Cc3ccc(F)c(C#N)c3)cc2s1 [II-0083], the pIC50 was > 7.00.
For Cn1cnc(Cn2c(=O)nc(Nc3cc4cn(C)nc4cc3Cl)n(Cc3cc(Cl)c(F)cn3)c2=O)n1 [II-0542], the pIC50 was > 7.00.
COc1ccc(Nc2nc(=O)n(Cc3cnc(C)[nH]c3=O)c(=O)n2Cc2cc(F)c(F)c(F)c2)cc1 [Compound I-0403] was tested, and the pIC50 was 6.51 and 6.00 to 7.00.
Cn1cnc2cc(Cl)c(Nc3nc(=O)n(Cc4ccc[nH]c4=O)c(=O)n3Cc3cc(F)c(F)c(F)c3)cc2c1=O [Compound I-0097] was tested, and the pIC50 was > 7.00.
For CCOc1c(F)cc(F)cc1Cn1c(Nc2cc3cn(C)nc3cc2Cl)nc(=O)n(Cc2ncn(C)n2)c1=O [II-0638], the pIC50 was > 7.00.
With CC(=O)NCCn1cc2cc(Nc3nc(=O)n(Cc4cc(Cl)c[nH]c4=O)c(=O)n3Cc3cc(F)c(F)c(F)c3)c(Cl)cc2n1 [Compound I-0453] the pIC50 was > 7.00.
For CS(=O)(=O)CCCn1cc2cc(Nc3nc(=O)n(Cc4ccc[nH]c4=O)c(=O)n3Cc3cc(F)c(F)c(F)c3)c(Cl)cc2n1 [Compound I-0287], the pIC50 was > 7.00.
For CCc1nc2cc(Cl)c(Nc3nc(=O)n(Cc4ccc[nH]c4=O)c(=O)n3Cc3cc(F)c(F)c(F)c3)cc2n1C [Compound I-0399], the pIC50 was > 7.00.
With N#Cc1cc(Cn2c(Nc3ccc4c(c3)CCO4)nc(=O)n(-c3cncc(CO)c3)c2=O)ccc1F [Compound I-0356] the pIC50 was > 7.00.
Cn1cnc(Cn2c(=O)nc(Nc3cc4cn(CCS(C)(=O)=O)nc4cc3Cl)n(Cc3cc(Cl)c(F)cc3F)c2=O)n1 [II-0033] was tested, and the pIC50 was > 7.00.
With O=c1[nH]cccc1Cn1c(=O)nc(NC23CC(Nc4ncccn4)(C2)C3)n(Cc2cc(F)c(F)c(F)c2)c1=O [II-0443] the pIC50 was > 7.00.
In the case of Cc1nc2cc(Cl)c(Nc3nc(=O)n(Cc4ccc[nH]c4=O)c(=O)n3Cc3cc(F)c(F)c(F)c3)cc2n1CCCS(C)(=O)=O [Compound I-0446], the pIC50 was > 7.00.
For CCNC(=O)Cn1cc2cc(Nc3nc(=O)n(Cc4ncn(C)n4)c(=O)n3Cc3cc(Cl)c(F)cc3F)c(Cl)cc2n1 [II-0151], the pIC50 was > 7.00.
CN(C)C(=O)c1ccc(Cn2c(=O)nc(Nc3ccc4c(c3)CCCO4)n(Cc3cc(F)c(F)c(F)c3)c2=O)c(=O)[nH]1 [II-0042] was tested, and the pIC50 was > 7.00.
For Cc1nc2cc(Cl)c(Nc3nc(=O)n(Cc4ccc[nH]c4=O)c(=O)n3Cc3cc(F)c(F)c(F)c3)cn2n1 [Compound I-0442], the pIC50 was > 7.00.
With O=c1[nH]cccc1Cn1c(=O)nc(Nc2cc3cn(CC4(CO)COC4)nc3cc2Cl)n(Cc2cc(F)c(F)c(F)c2)c1=O [Compound I-0469] the pIC50 was > 7.00.
CN1CC[C@H](n2cc3cc(Nc4nc(=O)n(Cc5ncn(C)n5)c(=O)n4Cc4cc(Cl)c(F)cc4F)c(Cl)cc3n2)C1=O [II-0447] was tested, and the pIC50 was > 7.00.
For Cn1cnc(Cn2c(=O)nc(NC34CC(Nc5ncc6ccccc6n5)(C3)C4)n(Cc3cc(F)c(F)c(F)c3)c2=O)n1 [II-0472], the pIC50 was > 7.00.
Cn1cnc(Cn2c(=O)nc(Nc3cc4cn(CC(=O)O)nc4cc3Cl)n(Cc3cc(F)c(F)c(Cl)c3)c2=O)n1 [II-0321] was tested, and the pIC50 was > 7.00.
With Cn1cnc(Cn2c(=O)nc(Nc3cc4cn(CC(=O)N5CC(F)(F)C5)nc4cc3Cl)n(Cc3cc(F)c(F)c(Cl)c3)c2=O)n1 [II-0143] the pIC50 was > 7.00.
In the case of O=c1[nH]cccc1Cn1c(=O)nc(Nc2ccc(OCCO)cc2Cl)n(Cc2cc(F)c(F)c(F)c2)c1=O [Compound I-0371], the pIC50 was > 7.00.
In the case of Cc1nc2cc(Cl)c(Nc3nc(=O)n(Cc4ccc[nH]c4=O)c(=O)n3Cc3cc(F)c(F)c(F)c3F)cc2n1C [Compound I-0265], the pIC50 was > 7.00.
COc1ccc(Nc2nc(=O)n(Cc3ccc[nH]c3=O)c(=O)n2Cc2nc3ccccc3s2)cc1 [Compound I-0223] was tested, and the pIC50 was 5.37 and 5.00 to 6.00.
In the case of CNC(=O)c1cccc(C2(Nc3nc(=O)n(Cc4ccc[nH]c4=O)c(=O)n3Cc3cc(F)c(F)c(F)c3)CCC2)c1 [II-0481], the pIC50 was 7.00.
For CCOC(=O)c1cc(F)c(F)cc1Cn1c(Nc2cc3cn(C)nc3cc2Cl)nc(=O)n(Cc2ncn(C)n2)c1=O [II-0636], the pIC50 was > 7.00.
For Cn1cc2cc(Nc3nc(=O)n(Cc4ccc[nH]c4=O)c(=O)n3Cc3cc(F)cc(C#N)c3)c(Cl)cc2n1 [Compound I-0268], the pIC50 was > 7.00.
In the case of COc1ccnc(NC23CC(Nc4nc(=O)n(Cc5ncn(C)n5)c(=O)n4Cc4cc(F)c(F)c(F)c4)(C2)C3)n1 [II-0113], the pIC50 was > 7.00.
With Cn1cnc(Cn2c(=O)nc(Nc3cc4cn(C)nc4cc3Cl)n(Cc3ccc(F)c(F)c3)c2=O)n1 [II-0635] the pIC50 was > 7.00.
Cc1cncc(-n2c(=O)nc(Nc3ccc(N=S(C)(C)=O)cc3Cl)n(Cc3cc(Cl)ccc3C)c2=O)c1 [II-0625] was tested, and the pIC50 was > 7.00.
In the case of COC(=O)c1cccc2c1CN(c1nc(=O)n(Cc3ccc[nH]c3=O)c(=O)n1Cc1cc(F)c(F)c(F)c1)C2 [II-0216], the pIC50 was > 7.00.
In the case of O=c1[nH]cccc1Cn1c(=O)nc(NC23CC(Nc4ncc(C(F)(F)F)cn4)(C2)C3)n(Cc2cc(F)c(F)c(F)c2)c1=O [II-0456], the pIC50 was > 7.00.
For Cn1cnc(Cn2c(=O)nc(Nc3cc4cn(CC(F)F)nc4cc3Cl)n(Cc3ccc(F)c(C#N)c3)c2=O)n1 [II-0549], the pIC50 was > 7.00.
Molecule O=c1[nH]cccc1Cn1c(=O)nc(NC(c2ccccc2)c2ccccc2O)n(Cc2cc(F)c(F)c(F)c2)c1=O (stereo not shown) [II-0229] has a pIC50 of 6.60.
In the case of Cc1nc2cc(Cl)c(Nc3nc(=O)n(Cc4ccc[nH]c4=O)c(=O)n3Cc3cc(F)cc(Cl)c3)cc2n1C [Compound I-0005], the pIC50 was > 7.00.
CC(C)(C)OC(=O)NC12CC(Nc3nc(=O)n(Cc4ccc[nH]c4=O)c(=O)n3Cc3cc(F)c(F)c(F)c3)(C1)C2 [II-0209] was tested, and the pIC50 was > 7.00.
With COc1ccc(Nc2nc(=O)n(Cc3cc(C(=O)O)c[nH]c3=O)c(=O)n2Cc2cc(F)c(F)c(F)c2)cc1 [Compound I-0089] the pIC50 was > 7.00.
In the case of CCNc1nc2cc(Cl)c(Nc3nc(=O)n(Cc4ncn(C)n4)c(=O)n3Cc3cc(Cl)c(F)cn3)cc2s1 [II-0340], the pIC50 was > 7.00.
In the case of Cc1cncc(-n2c(=O)nc(Nc3cc(F)c(N=S4(=O)CCCC4)cc3Cl)n(Cc3cc(Cl)ccc3C)c2=O)c1 [II-0620], the pIC50 was > 7.00.

Reference: patent publication US12559474B2, “Triazine derivatives having virus replication inhibitory activity and pharmaceutical composition comprising the same” (priority 2021, dated 2026)
